Test results as given in patent US11427549B2, “Pyrimidinyloxy benzo-fused compounds as herbicides” (FMC Corporation, priority 2017, dated 2022).

What was measured:
[1] = tested on: foxtail, green (green foxtail, Setaria viridis); experiment: Test A preemergence, foxtail, green; assay type: in vivo; conditions: Setaria, pre-emergence, 240 h, 0 to 100 scale (0 no effect, 100 complete control), read-out: Plant response rating, Foxtail, Green; for pest or weed control at 31 g/ha: 31 g ai/ha; for pest or weed control at 125 g/ha: 125 g ai/ha
[2] = tested on: ducksalad (Heteranthera limosa); experiment: Test B flooded paddy test, ducksalad; conditions: Heteranthera limosa, read-out: Plant response rating, Ducksalad (0 to 100 scale, 0 is no effect, 100 is complete control)
[3] = tested on: rice (Oryza sativa); experiment: Test B flooded paddy test, rice; conditions: Oryza sativa, read-out: Plant response rating, Rice (0 to 100 scale, 0 is no effect, 100 is complete control)
[4] = tested on: ragweed (common ragweed, Ambrosia elatior); experiment: Test A postemergence, ragweed; assay type: in vivo; conditions: Ambrosia artemisiifolia, post-emergence, 240 h, 0 to 100 scale (0 no effect, 100 complete control), read-out: Plant response rating, Ragweed; for pest or weed control at 31 g/ha: 31 g ai/ha; for pest or weed control at 125 g/ha: 125 g ai/ha
[5] = tested on: barnyardgrass (Echinochloa crus-galli); experiment: Test A preemergence, barnyardgrass; assay type: in vivo; conditions: Echinochloa crus-galli, pre-emergence, 240 h, 0 to 100 scale (0 no effect, 100 complete control), read-out: Plant response rating, Barnyardgrass; for pest or weed control at 31 g/ha: 31 g ai/ha; for pest or weed control at 125 g/ha: 125 g ai/ha
[6] = tested on: barnyardgrass (Echinochloa crus-galli); experiment: Test B flooded paddy test, barnyardgrass; conditions: Echinochloa crus-galli, read-out: Plant response rating, Barnyardgrass (0 to 100 scale, 0 is no effect, 100 is complete control)
[7] = tested on: pigweed (Amaranthus retroflexus); experiment: Test A preemergence, pigweed; assay type: in vivo; conditions: Amaranthus retroflexus, pre-emergence, 240 h, 0 to 100 scale (0 no effect, 100 complete control), read-out: Plant response rating, Pigweed; for pest or weed control at 31 g/ha: 31 g ai/ha; for pest or weed control at 125 g/ha: 125 g ai/ha
[8] = tested on: galium (catchweed bedstraw, Galium aparine); experiment: Test A postemergence, galium; assay type: in vivo; conditions: Galium, post-emergence, 240 h, 0 to 100 scale (0 no effect, 100 complete control), read-out: Plant response rating, Galium; for pest or weed control at 31 g/ha: 31 g ai/ha; for pest or weed control at 125 g/ha: 125 g ai/ha
[9] = tested on: wheat (Triticum aestivum); experiment: Test A postemergence, wheat; assay type: in vivo; conditions: Triticum aestivum, post-emergence, 240 h, 0 to 100 scale (0 no effect, 100 complete control), read-out: Plant response rating, Wheat; for plant injury at 31 g/ha: 31 g ai/ha; for plant injury at 125 g/ha: 125 g ai/ha
[10] = tested on: pigweed (Amaranthus retroflexus); experiment: Test A postemergence, pigweed; assay type: in vivo; conditions: Amaranthus retroflexus, post-emergence, 240 h, 0 to 100 scale (0 no effect, 100 complete control), read-out: Plant response rating, Pigweed; for pest or weed control at 31 g/ha: 31 g ai/ha; for pest or weed control at 125 g/ha: 125 g ai/ha
[11] = tested on: kochia (Kochia scoparia); experiment: Test A preemergence, kochia; assay type: in vivo; conditions: Bassia scoparia, pre-emergence, 240 h, 0 to 100 scale (0 no effect, 100 complete control), read-out: Plant response rating, Kochia; for pest or weed control at 31 g/ha: 31 g ai/ha; for pest or weed control at 125 g/ha: 125 g ai/ha
[12] = tested on: blackgrass (Alopecurus myosuroides); experiment: Test A postemergence, blackgrass; assay type: in vivo; conditions: Alopecurus myosuroides, post-emergence, 240 h, 0 to 100 scale (0 no effect, 100 complete control), read-out: Plant response rating, Blackgrass; for pest or weed control at 31 g/ha: 31 g ai/ha; for pest or weed control at 125 g/ha: 125 g ai/ha
[13] = tested on: barnyardgrass (Echinochloa crus-galli); experiment: Test A postemergence, barnyardgrass; assay type: in vivo; conditions: Echinochloa crus-galli, post-emergence, 240 h, 0 to 100 scale (0 no effect, 100 complete control), read-out: Plant response rating, Barnyardgrass; for pest or weed control at 31 g/ha: 31 g ai/ha; for pest or weed control at 125 g/ha: 125 g ai/ha
[14] = tested on: ragweed (common ragweed, Ambrosia elatior); experiment: Test A preemergence, ragweed; assay type: in vivo; conditions: Ambrosia artemisiifolia, pre-emergence, 240 h, 0 to 100 scale (0 no effect, 100 complete control), read-out: Plant response rating, Ragweed; for pest or weed control at 31 g/ha: 31 g ai/ha; for pest or weed control at 125 g/ha: 125 g ai/ha
[15] = tested on: corn (Zea mays); experiment: Test A postemergence, corn; assay type: in vivo; conditions: Zea mays, post-emergence, 240 h, 0 to 100 scale (0 no effect, 100 complete control); for Corn plant response rating (crop injury, 0 = no effect, 100 = complete kill) at 31 g/ha: 31 g ai/ha; for Corn plant response rating (crop injury, 0 = no effect, 100 = complete kill) at 125 g/ha: 125 g ai/ha
[16] = tested on: ryegrass, Italian (Italian ryegrass, Lolium multiflorum); experiment: Test A postemergence, ryegrass, Italian; assay type: in vivo; conditions: Lolium multiflorum, post-emergence, 240 h, 0 to 100 scale (0 no effect, 100 complete control), read-out: Plant response rating, Ryegrass, Italian; for pest or weed control at 31 g/ha: 31 g ai/ha; for pest or weed control at 125 g/ha: 125 g ai/ha
[17] = tested on: kochia (Kochia scoparia); experiment: Test A postemergence, kochia; assay type: in vivo; conditions: Bassia scoparia, post-emergence, 240 h, 0 to 100 scale (0 no effect, 100 complete control), read-out: Plant response rating, Kochia; for pest or weed control at 31 g/ha: 31 g ai/ha; for pest or weed control at 125 g/ha: 125 g ai/ha
[18] = tested on: ryegrass, Italian (Italian ryegrass, Lolium multiflorum); experiment: Test A preemergence, ryegrass, Italian; assay type: in vivo; conditions: Lolium multiflorum, pre-emergence, 240 h, 0 to 100 scale (0 no effect, 100 complete control), read-out: Plant response rating, Ryegrass, Italian; for pest or weed control at 31 g/ha: 31 g ai/ha; for pest or weed control at 125 g/ha: 125 g ai/ha

Row | SMILES | pest or weed control at 31 g/ha [1] [%] | pest or weed control at 125 g/ha [1] [%] | pest or weed control at 250 g/ha [2] [%] | plant injury at 250 g/ha [3] [%] | pest or weed control at 31 g/ha [4] [%] | pest or weed control at 125 g/ha [4] [%] | pest or weed control at 31 g/ha [5] [%] | pest or weed control at 125 g/ha [5] [%] | pest or weed control at 250 g/ha [6] [%] | pest or weed control at 31 g/ha [7] [%] | pest or weed control at 125 g/ha [7] [%] | pest or weed control at 31 g/ha [8] [%] | pest or weed control at 125 g/ha [8] [%] | plant injury at 31 g/ha [9] [%] | plant injury at 125 g/ha [9] [%] | pest or weed control at 31 g/ha [10] [%] | pest or weed control at 125 g/ha [10] [%] | pest or weed control at 31 g/ha [11] [%] | pest or weed control at 125 g/ha [11] [%] | pest or weed control at 31 g/ha [12] [%] | also measured
1 | O=C1O[C@@H](CCCC(F)(F)F)c2c(Oc3ncc(Cl)cn3)cccc21 [Compound 2, (3S)-4-[(5-Chloro-2-pyrimidinyl)oxy]-3-(4,4,4-trifluorobutyl)-1-(3H)-isobenzofuranone] | 0 | 30 | 0 | 0 | 0 | 30 | 0 | 0 | 0 | 0 | 20 | 0 | 10 | 0 | 0 | 10 | 50 | 0 | 0 | 0 | pest or weed control at 125 g/ha [12]: 0%; pest or weed control at 31 g/ha [13]: 0%; pest or weed control at 125 g/ha [13]: 0%; pest or weed control at 31 g/ha [14]: 0%; pest or weed control at 125 g/ha [14]: 0%; Corn plant response rating (crop injury, 0 = no effect, 100 = complete kill) at 31 g/ha [15]: 0%; Corn plant response rating (crop injury, 0 = no effect, 100 = complete kill) at 125 g/ha [15]: 10%; pest or weed control at 31 g/ha [16]: 0%; pest or weed control at 125 g/ha [16]: 10%; pest or weed control at 31 g/ha [17]: 0%; pest or weed control at 125 g/ha [17]: 10%; pest or weed control at 31 g/ha [18]: 0%; pest or weed control at 125 g/ha [18]: 0%
2 | O=C1O[C@H](CCCC(F)(F)F)c2c(Oc3ncc(Cl)cn3)cccc21 [Compound 3, (3R)-4-[(5-Chloro-2-pyrimidinyl)oxy]-3-(4,4,4-trifluorobutyl)-1-(3H)-isobenzofuranone] | 100 | 100 | 90 | 60 | 10 | 60 | 90 | 100 | 60 | 100 | 100 | 100 | 100 | 60 | 90 | 100 | 100 | 80 | 100 | 80 | pest or weed control at 125 g/ha [12]: 100%; pest or weed control at 31 g/ha [13]: 30%; pest or weed control at 125 g/ha [13]: 90%; pest or weed control at 31 g/ha [14]: 0%; pest or weed control at 125 g/ha [14]: 0%; Corn plant response rating (crop injury, 0 = no effect, 100 = complete kill) at 31 g/ha [15]: 50%; Corn plant response rating (crop injury, 0 = no effect, 100 = complete kill) at 125 g/ha [15]: 80%; pest or weed control at 31 g/ha [16]: 40%; pest or weed control at 125 g/ha [16]: 100%; pest or weed control at 31 g/ha [17]: 90%; pest or weed control at 125 g/ha [17]: 100%; pest or weed control at 31 g/ha [18]: 70%; pest or weed control at 125 g/ha [18]: 100%
